How the values were obtained:
PPARα = target: T1, PPARα (Mus musculus, UniProt P23204); experiment: PPRE luciferase reporter assay in HepG2 cells transfected with PPARα; format: cell-based; details: HepG2, read-out: Fold induction / PPAR alpha / 50 μg/ml
T1 sequence (P23204 1-468): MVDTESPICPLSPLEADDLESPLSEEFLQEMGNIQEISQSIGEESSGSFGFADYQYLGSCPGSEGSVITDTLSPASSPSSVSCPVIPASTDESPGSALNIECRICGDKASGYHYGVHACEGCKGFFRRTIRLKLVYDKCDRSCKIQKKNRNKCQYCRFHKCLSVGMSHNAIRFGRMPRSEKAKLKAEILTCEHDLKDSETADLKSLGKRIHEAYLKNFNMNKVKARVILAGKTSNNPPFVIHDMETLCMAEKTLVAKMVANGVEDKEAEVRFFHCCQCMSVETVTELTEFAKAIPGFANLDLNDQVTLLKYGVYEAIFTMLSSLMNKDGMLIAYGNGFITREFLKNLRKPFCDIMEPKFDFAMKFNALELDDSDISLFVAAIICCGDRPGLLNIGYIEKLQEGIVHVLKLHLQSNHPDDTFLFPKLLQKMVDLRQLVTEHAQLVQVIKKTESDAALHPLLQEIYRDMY

PPARγ = target: T2, PPARγ (Rattus norvegicus, UniProt O88275); experiment: PPRE luciferase reporter assay in HepG2 cells transfected with PPARγ; format: cell-based; details: HepG2, read-out: Fold induction / PPAR gamma / 50 μg/ml
T2 sequence (O88275 1-505): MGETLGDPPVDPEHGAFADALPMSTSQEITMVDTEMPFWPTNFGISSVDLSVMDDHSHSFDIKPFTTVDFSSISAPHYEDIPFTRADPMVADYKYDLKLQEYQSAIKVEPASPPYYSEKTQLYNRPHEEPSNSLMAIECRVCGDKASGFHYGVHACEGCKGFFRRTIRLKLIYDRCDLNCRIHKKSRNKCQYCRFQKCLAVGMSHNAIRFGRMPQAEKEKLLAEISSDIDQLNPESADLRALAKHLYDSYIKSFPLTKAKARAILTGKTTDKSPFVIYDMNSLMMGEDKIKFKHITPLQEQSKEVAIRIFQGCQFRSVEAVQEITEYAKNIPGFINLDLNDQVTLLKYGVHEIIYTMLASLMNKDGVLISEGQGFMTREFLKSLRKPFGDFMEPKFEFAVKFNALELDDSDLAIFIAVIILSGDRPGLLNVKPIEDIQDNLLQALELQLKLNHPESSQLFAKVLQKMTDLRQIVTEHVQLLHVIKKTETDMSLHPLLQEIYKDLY

| Structure (SMILES) | fold induction (PPARα) | fold induction at 10 µM (PPARγ) |
| --- | --- | --- |
| CC(C)(Oc1ccc(C2CC2(Cl)Cl)cc1)C(=O)O (centres unmarked) [Ciprofibrate] | 2.2 ± 0.21 |  |
| CN(CCOc1ccc(CC2SC(=O)NC2=O)cc1)c1ccccn1 (centres unmarked) [Rosiglitazone] |  | 4.33 ± 0.54 |
